Data taken from ChEMBL document CHEMBL6182913, “Design of Potent Small-Molecule Stimulator of Interferon Gene Inhibitor and Stimulator of Interferon Gene Mutant-Specific Degrader” (J Med Chem, 2025).
Calls of active or inactive are those of the source. The rule behind the calls is not given here.

Tests used:
[1] = biological target: T1, Stimulator of interferon genes protein (Homo sapiens, UniProt Q86WV6); experiment: Inhibition of cGAMP-induced STING S154 mutant transfected in human THP-1 cells preincubated with compound for 6 hrs followed by cGAMP addition and measured after 18 hrs by QUANTI-Luc based microplate reader analysis; assay type: cell-based
Target sequence in this assay (Q86WV6 whole entry, looked up, change not shown): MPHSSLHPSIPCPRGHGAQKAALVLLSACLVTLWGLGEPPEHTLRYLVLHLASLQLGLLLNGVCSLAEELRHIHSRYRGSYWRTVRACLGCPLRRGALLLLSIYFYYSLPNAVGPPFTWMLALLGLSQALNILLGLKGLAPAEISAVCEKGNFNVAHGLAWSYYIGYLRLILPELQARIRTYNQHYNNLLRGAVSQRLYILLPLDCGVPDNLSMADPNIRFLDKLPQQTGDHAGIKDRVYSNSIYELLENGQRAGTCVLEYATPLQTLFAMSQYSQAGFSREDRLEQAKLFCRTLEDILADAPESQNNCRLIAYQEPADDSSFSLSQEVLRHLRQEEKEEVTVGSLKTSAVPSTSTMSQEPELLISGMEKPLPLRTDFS

[2] = system: Stimulator of interferon genes protein (Homo sapiens), Q86WV6 [UNDEFINED MUTATION]; experiment: Induction of STING S154 mutant degradation in human THP-1 cells at 1 uM incubated for 12 hrs by Western blotting analysis; assay type: cell-based
[3] = system: Stimulator of interferon genes protein (Homo sapiens), Q86WV6 [UNDEFINED MUTATION]; experiment: Induction of STING M155 mutant degradation in human THP-1 cells at 1 uM preincubated with Baf A1 for 2 hrs followed by compound addition and measured after 22 hrs by Western blotting analysis; assay type: cell-based
[4] = Half life in mouse at 20 mg/kg, po by LC-MS/MS analysis; assay type: ADME, organism-based; conditions: in vivo
[5] = system: Stimulator of interferon genes protein (Homo sapiens), Q86WV6 [UNDEFINED MUTATION]; experiment: Induction of STING M155 mutant degradation in human THP-1 cells at 5 uM incubated for 24 hrs by global proteomics analysis; assay type: cell-based
[6] = system: Stimulator of interferon genes protein (Homo sapiens), Q86WV6 [UNDEFINED MUTATION]; experiment: Induction of STING S154 mutant degradation in human THP-1 cells by measuring maximum efficacy at 0.01 to 10 uM incubated for 24 hrs by Western blotting analysis relative to control; assay type: cell-based; conditions: dose 0.01-10 µM
[7] = biological target: T2, Stimulator of interferon genes protein (Mus musculus) (UniProt Q3TBT3); experiment: Inhibition of STING in mouse BMDM cells assessed as inhibition of ODN 2395-induced IFN-beta release at 0.05 to 0.5 uM pretreated with compound for 6 hrs followed by ODN 2395 addition and measured after 18 hrs by ELISA; assay type: cell-based; conditions: dose 0.05-0.5 µM, time 24.0 hrs
T2 sequence (whole entry): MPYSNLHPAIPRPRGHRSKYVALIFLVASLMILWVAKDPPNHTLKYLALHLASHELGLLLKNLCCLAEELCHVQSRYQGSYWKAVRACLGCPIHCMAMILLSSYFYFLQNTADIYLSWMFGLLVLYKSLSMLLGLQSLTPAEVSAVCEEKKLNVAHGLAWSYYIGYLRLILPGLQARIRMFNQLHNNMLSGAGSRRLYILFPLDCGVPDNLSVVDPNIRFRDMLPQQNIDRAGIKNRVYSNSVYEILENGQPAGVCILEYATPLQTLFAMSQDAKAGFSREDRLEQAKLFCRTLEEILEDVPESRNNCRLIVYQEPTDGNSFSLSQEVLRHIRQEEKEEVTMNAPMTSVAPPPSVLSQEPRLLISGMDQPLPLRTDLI

[8] = biological target: T2, Stimulator of interferon genes protein (Mus musculus); experiment: In vivo inhibition of cGAMP-induced STING activation in autoimmune disease female C57BL/6 mouse model assessed as decrease in cGAMP-induced serum INF-beta level at 10 mg/kg, sc pretreated with compound for 2 hrs followed by cGAMP addition and measured after 3 hrs by ELISA; assay type: functional, organism-based
[9] = biological target: T2, Stimulator of interferon genes protein (Mus musculus); experiment: Inhibition of STING in mouse BMDM cells assessed as inhibition of LPS-induced IFN-beta release at 0.05 to 0.5 uM pretreated with compound for 6 hrs followed by LPS addition and measured after 18 hrs by ELISA; assay type: cell-based; conditions: dose 0.05-0.5 µM, time 24.0 hrs
[10] = biological target: T1, Stimulator of interferon genes protein; experiment: Induction of STING M155 mutant degradation in human THP-1 cells incubated for 24 hrs by Western blotting analysis; assay type: cell-based
Target sequence in this assay (Q86WV6 whole entry, looked up, change not shown): as the sequence (Q86WV6 whole entry, looked up, change not shown) above

[11] = Metabolic stability in human liver microsomes assessed as half life at 10 uM in presence of NADPH by LC-MS/MS analysis; assay type: ADME, Microsome
[12] = Cmax in mouse at 20 mg/kg, po by LC-MS/MS analysis; assay type: ADME, organism-based; conditions: in vivo, po, 20 mg/kg
[13] = biological target: T1, Stimulator of interferon genes protein; experiment: Inhibition of STING activation in human THP1-Blue ISG cells assessed as decrease in cGAMP-induced STING phosphorylation at 0.1 to 1 uM preincubated with compound for 6 hrs followed by cGAMP addition and measured after 3 hrs by Western blotting analysis; assay type: cell-based; conditions: dose 0.1-1 µM, time 9.0 hrs
Target sequence in this assay (Q86WV6 whole entry): as the sequence (Q86WV6 whole entry, looked up, change not shown) above

[14] = Apparent oral clearance in mouse at 20 mg/kg, po by LC-MS/MS analysis; assay type: ADME, organism-based; conditions: in vivo
[15] = biological target: T3, Stimulator of interferon genes protein (Mus musculus, UniProt Q3TBT3); experiment: Inhibition of cGAMP-induced mouse STING transfected in human THP-1 cells preincubated with compound for 6 hrs followed by cGAMP addition and measured after 18 hrs by QUANTI-Luc based microplate reader analysis; assay type: cell-based
T3 sequence (Q3TBT3 whole entry): T2 sequence (whole entry)

[16] = biological target: T1, Stimulator of interferon genes protein; experiment: Inhibition of cGAMP-induced STING R232 mutant transfected human THP-1 cells preincubated with compound for 6 hrs followed by cGAMP addition and measured after 18 hrs by QUANTI-Luc based microplate reader analysis; assay type: cell-based
Target sequence in this assay (Q86WV6 whole entry, looked up, change not shown): as the sequence (Q86WV6 whole entry, looked up, change not shown) above

[17] = Metabolic stability in mouse plasma assessed as half life in presence of NADPH by LC-MS/MS analysis; assay type: ADME, cell-free
[18] = biological target: T2, Stimulator of interferon genes protein (Mus musculus); experiment: In vivo inhibition of cGAMP-induced STING activation in autoimmune disease female C57BL/6 mouse model assessed as decrease in cGAMP-induced serum CXCL-10 level at 20 mg/kg, po pretreated with compound for 2 hrs followed by cGAMP addition and measured after 3 hrs by ELISA; assay type: functional, organism-based
[19] = Cytotoxicity against human THP1-Blue ISG cells assessed as inhibition of cell growth at 10 uM incubated for 24 hrs by MTS assay relative to control; assay type: toxicity, cell-based
[20] = biological target: T2, Stimulator of interferon genes protein (Mus musculus); experiment: In vivo inhibition of cGAMP-induced STING activation in autoimmune disease female C57BL/6 mouse model assessed as decrease in cGAMP-induced serum CXCL-10 level at 10 mg/kg, sc pretreated with compound for 2 hrs followed by cGAMP addition and measured after 3 hrs by ELISA; assay type: functional, organism-based
[21] = biological target: T2, Stimulator of interferon genes protein (Mus musculus); experiment: Inhibition of STING in mouse BMDM cells assessed as inhibition of cGAMP-induced IFN-beta release at 0.05 to 0.5 uM pretreated with compound for 6 hrs followed by cGAMP addition and measured after 18 hrs by ELISA; assay type: cell-based; conditions: dose 0.05-0.5 µM, time 24.0 hrs
[22] = biological target: T1, Stimulator of interferon genes protein; experiment: Inhibition of STING activation in human THP1-Blue ISG cells assessed as inhibition of c-GAMP-induced STING dimerization at 0.1 to 1 uM preincubated with compound for 6 hrs followed by cGAMP addition and measured after 3 hrs by Western blotting analysis; assay type: cell-based; conditions: dose 0.1-1 µM, time 9.0 hrs
Target sequence in this assay (Q86WV6 whole entry): as the sequence (Q86WV6 whole entry, looked up, change not shown) above

[23] = biological target: T2, Stimulator of interferon genes protein (Mus musculus); experiment: In vivo inhibition of cGAMP-induced STING activation in autoimmune disease female C57BL/6 mouse model assessed as decrease in cGAMP-induced serum INF-beta level at 20 mg/kg, po pretreated with compound for 2 hrs followed by cGAMP addition and measured after 3 hrs by ELISA; assay type: functional, organism-based
[24] = system: Stimulator of interferon genes protein (Homo sapiens), Q86WV6 [UNDEFINED MUTATION]; experiment: Induction of STING M155 mutant degradation in human THP-1 cells at 1 uM preincubated with MG132 for 2 hrs followed by compound addition and measured after 22 hrs by Western blotting analysis; assay type: cell-based
[25] = system: Stimulator of interferon genes protein (Homo sapiens), Q86WV6 [UNDEFINED MUTATION]; experiment: Induction of STING M155 mutant degradation in human THP-1 cells at 1 uM incubated for 48 hrs by Western blotting analysis; assay type: cell-based
[26] = system: Stimulator of interferon genes protein (Homo sapiens), Q86WV6 [UNDEFINED MUTATION]; experiment: Induction of STING M155 mutant degradation in human THP-1 cells at 1 uM incubated for 12 hrs by Western blotting analysis; assay type: cell-based
[27] = biological target: T1, Stimulator of interferon genes protein; experiment: Inhibition of STING activation in human THP1-Blue ISG cells assessed as decrease in cGAMP-induced IRF3 phosphorylation at 0.1 to 1 uM preincubated with compound for 6 hrs followed by cGAMP addition and measured after 3 hrs by Western blotting analysis; assay type: cell-based; conditions: dose 0.1-1 µM, time 9.0 hrs
Target sequence in this assay (Q86WV6 whole entry): as the sequence (Q86WV6 whole entry, looked up, change not shown) above

Chain of Stimulator of interferon genes protein (Homo sapiens), Q86WV6 [UNDEFINED MUTATION] (Q86WV6 whole entry, looked up, change not shown): as the sequence (Q86WV6 whole entry, looked up, change not shown) above

IC50 [1]: 280 nM
Activity [2]: Active
Activity [3]: inactive
half-life [4]: 3.3 h
Activity [5]: Active
Emax [6]: 89%
inhibition [7]: inactive
inhibition [8]: Active
inhibition [9]: inactive
DC50 [10]: 760 nM
half-life at 10 µM [11]: > 1 h
Cmax [12]: 293 ng/mL
Cmax ([12]; read-out: Cmax): 200 nM
inhibition [13]: Active
CL/F [14]: 163 mL/min/kg
IC50 [15]: 30 nM
IC50 [16]: 30 nM
half-life [17]: > 4 h
inhibition [18]: Active
inhibition [20]: Active
inhibition [21]: Active
inhibition [22]: Active
inhibition [23]: Active
Activity [24]: Active
Activity [26]: Active
inhibition [27]: Active
Structure (SMILES): COc1ccc2c(c1)C(=O)N(c1ccc(C(C)(C)C)c(F)c1)C(c1cc3cc(-c4ccc(C(=O)Nc5ccc(O)c(NS(C)(=O)=O)c5)cc4)ccc3o1)C2C(N)=O (stereo not drawn)
inhibition at 24 h, 10 µM [19]: 34.4%
Activity [25]: Active; Compound Showed Maximum Degradation
